From US20050130252A1, “Stabilized susceptibility tests of aerobic pathogens” (Wyeth Holdings Corporation, priority 2003, published 2005)
≈ marks a conversion by molar mass, not a printed value. Where two headings read alike, the source gives them in different places.

Tests used:
[1] = test system: Enterococcus faecalis GC2267 tet(L) + (M) + (S); assay: Agar dilution in vitro activity; assay type: cell-based; details: E. faecalis GC2267 tet(L) + (M) + (S)
Protocol: (§1) The in vitro activities of tigecycline and control antibiotics were determined by the broth microdilution method as recommended by the NCCLS. (National Committee for Clinical Laboratory Standards, 2003. Methods for Dilution Antimicrobial Susceptibility Tests for Bacteria That Grow Aerobically; Approved Standards: M7-A6, Sixth ed, vol. 23., National Committee for Clinical Laboratory Standards Wayne, Pa.) was used for the standard procedures. MBH with 5% lysed horse blood was used for testing S. pneumoniae and Haemophilus Test Medium was used for testing H. influenzae. Oxyrase® (Oxyrase Inc, Mansfield, Ohio) was used according to the manufacturer's instructions by adding 1 ml of Oxyrase® to 50 ml of media. Media age studies were performed by preparing MHB in multiple flasks, then storing the media under various conditions. MICs were usually performed in duplicate on each day of testing. Storage under anaerobic conditions was conducted in an anaerobic chamber (MACS MG 1000, Don Whitley Scientific LTD). The pH of the media was determined by pH meter (Corning 430). A comparison of the in vitro activity of tigecycline by agar and broth dilution methodolgies with and without Oxyrase® against clinical isolates is shown in Table 1.

S. aureus ATCC 25923 = assay: Broth microdilution MIC; assay type: cell-based, Staphylococcus aureus; details: Staphylococcus aureus, ATCC25923, read-out: Minimal Inhibitory Concentration, S. aureus ATCC 25923
Protocol: (§2) The process for preparing susceptibility test medium are the following steps: • a. Preparing Mueller Hinton Broth II medium by adding 22 grams powdered media to 1.0 liter distilled water; • b. Autoclaving (121° C., 15 psi, 15 minutes) and cooling the medium; • c. Adding Oxyrase® up to about 10% final volume and keeping at 35-37° C. in an incubator for 30 minutes; • d. Adding about 50 μL to each well of a 96 well microtiter plate; • e. Weighing drug and adding broth to drug to bring up to about (standard 128 μg/ml); • f. Adding 50 μL of the drug to the first column of the titer plate; • g. Diluting by two-fold serial diluting across or down the plate. • h. Preparing a Prompt™ inoculum at 10^8 CFU/ml; • i. Diluting inoculum 1:100 in the broth at […] in 9.9 ml (1:100) is 10^6 colony forming units (CFU) forming the adjusted inoculum; • j. Adding 50 μL of the adjusted inoculum to the wells of the microtiter plate; • k. Incubating the plates at 35-37° C. for 18-22 hours; and • l. Reading, with the unaided eye, the MIC.
as §1

S. aureus ATCC 29213 = assay: Broth microdilution MIC; assay type: cell-based, Staphylococcus aureus; details: Staphylococcus aureus
Protocol: as §2, §1

CN(C)c1cc(NC(=O)CNC(C)(C)C)c(O)c2c1C[C@H]1C[C@H]3[C@H](N(C)C)C(O)=C(C(N)=O)C(=O)[C@@]3(O)C(O)=C1C2=O [Tigecycline, tigecycline]
In Vitro Activity of Tigecycline ([1]; Oxyrase (10%)): 0.12 | In Vitro Activity of Tigecycline ([1]; no Oxyrase): 0.25 | MIC (S. aureus ATCC 25923; 2% Oxyrase): 0.06 µg/mL (≈ 0.102 µM) | MIC (S. aureus ATCC 25923; MHB II + 0.05% Sodium Pyruvate): 0.25 µg/mL | MIC (S. aureus ATCC 25923; No Oxyrase): 0.25 µg/mL (≈ 0.427 µM) | MIC (S. aureus ATCC 29213; ATCC29213, 0 h, S. aureus ATCC 29213, Day 0, Pre-prepared media, room temperature, N = 6): 0.25 µg/mL (≈ 0.427 µM) | MIC (S. aureus ATCC 29213; ATCC29213, 0 h, S. aureus ATCC 29213, Day 0, media Fresh from Powder 2° C., N = 6): 0.12 µg/mL (≈ 0.205 µM) | MIC (S. aureus ATCC 29213; ATCC29213, 0 h, S. aureus ATCC 29213, Day 0, media Fresh from Powder, room temperature, N = 6): 0.06 to 0.12 µg/mL (≈ 0.102 to 0.205 µM) | MIC (S. aureus ATCC 29213; ATCC29213, 24 h, S. aureus ATCC 29213, Day 1, Pre-prepared media, room temperature, N = 6): 0.25 µg/mL (≈ 0.427 µM) | MIC (S. aureus ATCC 29213; ATCC29213, 24 h, S. aureus ATCC 29213, Day 1, media Fresh from Powder 2° C., N = 6): 0.12 µg/mL (≈ 0.205 µM) | MIC (S. aureus ATCC 29213; ATCC29213, 24 h, S. aureus ATCC 29213, Day 1, media Fresh from Powder, room temperature, N = 6): 0.12 µg/mL (≈ 0.205 µM) | MIC (S. aureus ATCC 29213; ATCC29213, 168 h, S. aureus ATCC 29213, Day 7, Pre-prepared media, room temperature, N = 6): 0.25 µg/mL (≈ 0.427 µM) | MIC (S. aureus ATCC 29213; ATCC29213, 168 h, S. aureus ATCC 29213, Day 7, media Fresh from Powder 2° C., N = 6): 0.12 µg/mL (≈ 0.205 µM) | MIC (S. aureus ATCC 29213; ATCC29213, 168 h, S. aureus ATCC 29213, Day 7, media Fresh from Powder, room temperature, N = 6): 0.25 µg/mL (≈ 0.427 µM) | MIC (S. aureus ATCC 29213; ATCC29213, 336 h, S. aureus ATCC 29213, Day 14, Pre-prepared media, room temperature, N = 6): 0.25 to 0.5 µg/mL (≈ 0.427 to 0.854 µM) | MIC (S. aureus ATCC 29213; ATCC29213, 336 h, S. aureus ATCC 29213, Day 14, media Fresh from Powder 2° C., N = 6): 0.25 to 0.5 µg/mL (≈ 0.427 to 0.854 µM) | MIC (S. aureus ATCC 29213; ATCC29213, 336 h, S. aureus ATCC 29213, Day 14, media Fresh from Powder, room temperature, N = 6): 0.25 to 0.5 µg/mL (≈ 0.427 to 0.854 µM) | MIC (S. aureus ATCC 29213; ATCC29213, 336 h, read-out: Minimal Inhibitory Concentration, S. aureus ATCC 29213, media Aged Aerobic (2 weeks at RT under room air), N = 4): 0.25 to 0.5 µg/mL (≈ 0.427 to 0.854 µM) | MIC (S. aureus ATCC 29213; ATCC29213, 504 h, S. aureus ATCC 29213, Day 21, Pre-prepared media, room temperature, N = 6): 0.5 µg/mL (≈ 0.854 µM) | MIC (S. aureus ATCC 29213; ATCC29213, 504 h, S. aureus ATCC 29213, Day 21, media Fresh from Powder 2° C., N = 6): 0.25 to 0.5 µg/mL (≈ 0.427 to 0.854 µM) | MIC (S. aureus ATCC 29213; ATCC29213, 504 h, S. aureus ATCC 29213, Day 21, media Fresh from Powder, room temperature, N = 6): 0.25 µg/mL (≈ 0.427 µM) | MIC (S. aureus ATCC 29213; ATCC29213, 672 h, S. aureus ATCC 29213, Day 28, Pre-prepared media, room temperature, N = 6): 0.25 to 0.5 µg/mL (≈ 0.427 to 0.854 µM) | MIC (S. aureus ATCC 29213; ATCC29213, 672 h, S. aureus ATCC 29213, Day 28, media Fresh from Powder 2° C., N = 6): 0.25 µg/mL (≈ 0.427 µM) | MIC (S. aureus ATCC 29213; ATCC29213, 672 h, S. aureus ATCC 29213, Day 28, media Fresh from Powder, room temperature, N = 6): 0.25 µg/mL (≈ 0.427 µM) | MIC (S. aureus ATCC 29213; ATCC29213, read-out: Minimal Inhibitory Concentration (modal value), S. aureus ATCC 29213, Aged Media + Oxyrase, N = 8): 0.25 µg/mL | MIC (S. aureus ATCC 29213; ATCC29213, read-out: Minimal Inhibitory Concentration (modal value), S. aureus ATCC 29213, Aged media, N = 8): 0.5 µg/mL (≈ 0.854 µM) | MIC (S. aureus ATCC 29213; ATCC29213, read-out: Minimal Inhibitory Concentration (modal value), S. aureus ATCC 29213, Fresh Media + Oxyrase, N = 8): 0.12 µg/mL | MIC (S. aureus ATCC 29213; ATCC29213, read-out: Minimal Inhibitory Concentration (modal value), S. aureus ATCC 29213, Freshly Prepared Media, N = 8): 0.25 µg/mL (≈ 0.427 µM) | MIC (S. aureus ATCC 29213; ATCC29213, read-out: Minimal Inhibitory Concentration, S. aureus ATCC 29213, Aged Media + Oxyrase, N = 8): 0.12 to 0.25 µg/mL | MIC (S. aureus ATCC 29213; ATCC29213, read-out: Minimal Inhibitory Concentration, S. aureus ATCC 29213, Aged media, N = 8): 0.5 µg/mL (≈ 0.854 µM) | MIC (S. aureus ATCC 29213; ATCC29213, read-out: Minimal Inhibitory Concentration, S. aureus ATCC 29213, Commercially Prepared media, N = 4): 0.25 µg/mL (≈ 0.427 µM) | MIC (S. aureus ATCC 29213; ATCC29213, read-out: Minimal Inhibitory Concentration, S. aureus ATCC 29213, Fresh Media + Oxyrase, N = 8): 0.12 to 0.25 µg/mL | MIC (S. aureus ATCC 29213; ATCC29213, read-out: Minimal Inhibitory Concentration, S. aureus ATCC 29213, Freshly Prepared Media, N = 8): 0.25 µg/mL (≈ 0.427 µM) | MIC (S. aureus ATCC 29213; ATCC29213, read-out: Minimal Inhibitory Concentration, S. aureus ATCC 29213, Freshly Prepared media, N = 4): 0.06 to 0.12 µg/mL (≈ 0.102 to 0.205 µM) | MIC (S. aureus ATCC 29213; ATCC29213, read-out: Minimal Inhibitory Concentration, S. aureus ATCC 29213, MHB II + 0.05% Catalase): 0.5 µg/mL
